Test results from patent publication US20230140453A1, “METHOD FOR CONTROLLING OBESITY BY REGULATING ACTIVITY OF TREK1” (KOREA INSTITUTE OF SCIENCE AND TECHNOLOGY, priority 2021, published 2023).

What was measured:
[1] = system: 3T3L1 cell line; assay: Adipocyte differentiation inhibition by TREK1 activator (triglyceride amount) in 3T3L1 cells; assay type: cell-based; conditions: 10 μM, 25 μM
Method: (§1) 3T3-L1 cells were purchased from ATCC (American Type Culture Collection) and cultured in Dulbecco's Modified Eagle Medium (Gibco, N.Y., USA) with 10% (v/v) bovine serum (Gibco, N.Y., USA) and 1% v/v) penicillin/streptomycin (Thermo Fisher Scientific, N.J., USA). Cultures were maintained in a humidified 5% CO2 incubator at 37° C. After reaching 80% confluence, the differentiation of 3T3L1 cells was induced by replacing the medium with DMEM containing 10% FBS plus 1 μg/mL insulin, 0.5 mM isobutyl-1-methylxanthine (IBMX), 1 μM and 2 μM Rosiglitazone for 3 days. Afterward the medium was changed with DMEM containing 10% FBS plus 1 μg/mL insulin, and the cells were further cultured for 2 to 4 days. Culture medium contained a combination of IBMX, dexamethasone (Dex), insulin, rosiglitazone, and fetal bovine serum (FBS) to differentiate preadipocyte into mature adipocytes. After differentiation, experiments were conducted at three points. Each time the medium was changed over time, the cells were differentiated with IBMX medium for 3 days, and then changed to insulin medium every 2 days thereafter. As a result of confirmation by a microscope, the cell shape of 3T3-L1 was changed over time and intracellular lipid droplets were produced.
The 3T3L1 cell line, in which the same effect as in vivo and conditions was well confirmed, was treated with ML402, which has been reported to have an active effect on TREK1. Specifically, the cells were sampled on the 3rd, 5th, and 7th days by treating ML402 together from the time of differentiation at concentrations of 10 μM, 25 μM, and 100 μM, respectively.

[2] = system: 3T3L1 cells; assay: Intracellular calcium ion concentration in 3T3L1 preadipocytes; assay type: cell-based
Excerpt: In summary, the activity of TREK1, which is a potassium ion channel, was decreased in the process of differentiation into adipocytes, and as a result, the cell membrane potential was depolarized, and voltage-dependent calcium ion channels were activated, resulting in increasing intracellular calcium ion concentration and promoting the differentiation of adipocytes.

[3] = system: 3T3L1 cell line; assay: Differentiation of 3T3L1 preadipocytes into adipocytes; assay type: cell-based
Method: The 3T3L1 cell line, a preadipocyte cell line, was treated with MDI (Dexamethasone, IBMX, insulin) as a differentiation-inducing agent, and differentiation was induced for 7 days, and the differentiation into adipocytes was confirmed by staining with oil red 0 (FIG. 1A).
as §1, with “As a result of confirmation by a microscope, the cell shape of 3T3-L1 was changed over time and intracellular lipid droplets were produced.” left out

[4] = system: primary cultured adipocytes; assay: Potassium conductivity and resting membrane potential in primary cultured adipocytes; assay type: cell-based, mouse (C57BL/6)
Method: (§2) The method for obtaining primary cultured adipocytes is as follows. Primary white adipocytes were isolated from inguinal WAT 6-8 week mouse (C57BL/6). The extracted WAT was washed in a 15 mL tube. The enzyme solution was mixed with collagenase Type II (Worthington Industries, Columbus, Ohio, USA) and PBS (Gibco, N.Y., USA), and the tissue was incubated in 20 mL enzyme solution in an incubator at 37° C. for 1 hour. After filtering, the tissue was added to a new 50 mL tube and centrifuged at 10,000 rpm for 10 minutes. The adipocytes floating in the solution were transferred to a new tube using a pipette. Then, the adipocytes were once more centrifuged in DMEM/F12 (Gibco, N.Y., USA) containing 10% (v/v) FBS. After transferring the fatty layer to the cell culture flask, and the flask was filled with DMEM/F12+mixture. The flask was inverted and incubated in a 37° C. CO2 incubator, and the medium was changed after about 5 days.

[5] = system: 3T3L1 cell line; assay: Potassium ion conductivity by patch clamp in undifferentiated 3T3L1 cells; assay type: cell-based; conditions: undifferentiated condition, patch clamp (FIG. 2B)
Method: as §1, with “produced. […]” for “produced.”

[6] = system: primary cultured adipocytes; assay: Differentiation of primary cultured adipocytes; assay type: cell-based, mouse (C57BL/6); conditions: primary cultured adipocytes treated with TREK1 inhibitor (FIG. 4 legend)
Method: as §2

Cc1cc(Cl)ccc1OCCNC(=O)c1cccs1 [ML402]
differentiation process ([1]; 3T3L1, 100 μM (FIG. 7)): inhibited in a concentration-dependent manner | amount of triglycerides ([1]; 3rd day, 100 μM from the time of differentiation, vs control group (FIG. 7)): did not show a significant difference | amount of triglycerides ([1]; 5th and 7th days, 100 μM from the time of differentiation (FIG. 7)): decreased in a concentration-dependent manner

COC(=O)C1=C(C)NC(C)=C(C(=O)OC)C1c1ccccc1[N+](=O)[O-] [nifedifine]
spadin-induced increase in calcium ions ([2]; with voltage-dependent calcium ion channel inhibitor (FIGS. 3B and 3C)): effectively inhibited | differentiation into adipocytes ([3]; with voltage-dependent calcium ion channel inhibitor, spadin-treated 3T3L1 (FIGS. 3D and 3E)): differentiation into adipocytes was also inhibited

spadin
resting membrane potential ([4]; 1 μM concentration (FIG. 4C)): the resting membrane potential was also increased | potassium ion conductivity ([4]; 1 μM concentration (FIGS. 4A and 4B)): significantly decreased | intracellular calcium ion concentration ([2]; 30 minutes after spadin treatment (FIG. 3A)): a significant increase in calcium ions | potassium conductivity [5]: most of the potassium conductivity was decreased | degree of differentiation into adipocytes ([3]; treated in the process of differentiation of 3T3L1 (FIG. 2C)): the degree of differentiation was significantly increased | differentiation into adipocytes [6]: differentiation into adipocytes is significantly increased
